Results published in US20090208517A1, “Preparation Of Antigen-Presenting Human Gamma-Delta T Cells And Use In Immunotherapy” (priority 2004, published 2009).

Test system: naïve CD4^+ αβ T cells
Format: cell-based, human

## phytohemagglutinin [PHA]
  Vβ2^+ (%) responder cells: 9%
  selective expansion of Vβ2^+ T cells (in words): does not result in selective expansion of Vβ2^+ T cells
